From article PMC3714011 (Journal of medicinal chemistry, 2013)

Key:
[1] = system: initiator methionine of TXNL1 in HEK293T cells; assay: Initiator methionine release assay, TXNL1-3×Flag in HEK293T cells; type: cell-based, human; conditions: 10 μM
[2] = system: iMet processing of 14-3-3γ in HUVEC; conditions: for signal of unprocessed 14-3-3γ in the presence of cycloheximide: HUVEC treated with cycloheximide prior to MetAP inhibitor
[3] = system: initiator methionine of BTF3L4 in HEK293T cells; assay: Initiator methionine release assay, BTF3L4-3×Flag in HEK293T cells; type: cell-based, human; conditions: 10 μM 11j, 100 nM TNP-470
[4] = target: T1, HsMetAP1 (Homo sapiens, UniProt P53582); assay: ProIP-coupled MetAP activity assay, HsMetAP1 with Co; type: biochemical
[5] = target: HsMetAP2 (Homo sapiens, UniProt P50579); assay: ProIP-coupled MetAP activity assay, HsMetAP2 with Mn; type: biochemical
[6] = Solubility observed at highest doses tested in the proliferation assay; conditions: 90 μM for 2, 40 μM for 3 and 40 μM for 4
[7] = patients with advanced cancer; cited from earlier work
[8] = system: HDFa; assay: [3H]-thymidine incorporation assay, HDFa; type: cell-based; conditions: Homo sapiens, read-out: Inhibition of Cell Proliferation (EC50, μM) HDFa
[9] = system: Jurkat E6-1, HeLa, HEK293T, PC-3 and MCF-7; assay: iMet processing of 14-3-3γ by immunoblot in five neoplastic cell lines; type: cell-based, human; conditions: all five neoplastic cell lines, 100 nM, 24 hours
[10] = target: T1, HsMetAP1; assay: LAO and HRP-coupled MetAP activity assay, HsMetAP1 with Zn; type: biochemical; conditions: concentrations up to 250 μM, Figure S3E
[11] = system: Escherichia coli; conditions: at concentrations up to 1 mM; ref 46b; cited from earlier work
[12] = system: iMet processing of 14-3-3γ in HDFa cells; conditions: 3–250 μM, 24 hours

HsMetAP2, sequence (P50579 whole entry): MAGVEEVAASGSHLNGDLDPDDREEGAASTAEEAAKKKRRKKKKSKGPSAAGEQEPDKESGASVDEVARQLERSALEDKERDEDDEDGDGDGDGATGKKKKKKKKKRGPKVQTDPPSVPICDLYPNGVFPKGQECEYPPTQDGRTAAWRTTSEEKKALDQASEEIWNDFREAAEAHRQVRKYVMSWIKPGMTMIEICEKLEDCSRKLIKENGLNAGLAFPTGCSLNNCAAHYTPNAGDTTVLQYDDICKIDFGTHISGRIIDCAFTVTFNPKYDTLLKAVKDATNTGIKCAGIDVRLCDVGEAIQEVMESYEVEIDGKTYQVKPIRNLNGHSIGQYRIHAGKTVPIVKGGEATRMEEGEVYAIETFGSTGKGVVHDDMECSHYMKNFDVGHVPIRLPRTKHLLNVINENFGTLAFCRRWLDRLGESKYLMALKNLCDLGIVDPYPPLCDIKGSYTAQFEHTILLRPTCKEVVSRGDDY

In the case of `COc1ccc(N2CCN(c3nc(-c4ccccn4)nc4ccccc34)CC2)cc1` [11j, 4-[4-(4-Methoxyphenyl)piperazin-1-yl]-2-(pyridin-2-yl)quinazoline], the “increase of the release of [35S]-Met from TXNL1-3×Flag, more than the vehicle” value [1] is reported as 40 ± 17%, the “signal of unprocessed 14-3-3γ in the presence of cycloheximide” value (“signal of unprocessed 14-3-3γ” below) [2] is reported as “none of the MetAP inhibitors could generate a detectable signal” and the “level of unprocessed 14-3-3γ over time” value ([2]; HUVEC, 10 μM, 1–7 hours) is reported as “increased in a time-dependent manner”. The “iMet retention of BTF3L4-3×Flag” value [3] was “no appreciable increase”.

For `c1ccc(-c2nc(NCCc3c[nH]c4ccccc34)c3ccccc3n2)nc1` [10c, N-[2-(1H-indol-3-yl)ethyl]-2-(pyridin-2-yl)quinazolin-4-amine], the “increase in potency against HsMetAP1 with Co(II) compared with 10a” value [4] was 7.8 fold, the EC50 ([4]; EC50 (μM) HsMetAP1 Co(II), Table 2, 10 μM Co(II), mean ± SD of at least three determinations) was 0.12 ± 0.02 µM and the EC50 ([4]; EC50 (μM) HsMetAP1 Mn(II), Table 2, 10 μM Mn(II), mean ± SD) was 5.3 ± 0.7 µM. The “increase in potency against HsMetAP1 with Mn(II) compared with 10a” value ([4]; Mn(II)) was 4.5 fold and the EC50 [5] was > 300 µM.

With `Cc1nc(-c2ccccn2)nc(NCCNc2ccc(C(F)(F)F)cn2)c1Cl` [compound 4] the “solubility at highest doses tested” value [6] was “No solubility problems”.

For `c1ccc(NCCNc2nc(-c3ccccn3)nc3ccccc23)cc1` [10b, N^1-Phenyl-N^2-[2-(pyridin-2-yl)quinazolin-4-yl]ethane-1,2-diamine], the “inhibitory activity against HsMetAP1 in the presence of Mn(II) / absence of Co(II)” value ([4]; 10 μM Mn(II)) was “completely lost the inhibitory activity”.

In the case of `CO[C@@H](C(=O)N[C@H]1CC[C@@H](OC(=O)C2CCCCC2)CNC1=O)[C@H](O)[C@@H](O)[C@H](O)/C=C/C(C)(C)C` [LAF-389], the “reason for termination of the clinical study” value [7] is given as “cardiovascular toxicity”.

For `Cc1nc(-c2ccccn2)nc(NCCc2ccccc2)c1Cl` [compound 2, 5-chloro-6-methyl-N-(2-phenylethyl)-2-pyridin-2-ylpyrimidine-4-amine], the “increase in ratio when TNP-470 was supplemented” value ([2]; HUVEC treated with 30 μM compound 2 plus TNP-470) was 3.5 fold.

For `c1ccc(-c2ccccn2)nc1` [2,2′-Bipyridine, 2,2′-bipyridine], the EC50 [8] was 10 to 30 µM, the inhibition at 100 µM ([4]; read-out: inhibition of the activity of HsMetAP1 in the absence of Co(II)) was ≤ 30% and the “ability to block the NME of 14-3-3γ in cells, lower than 11j” value ([2]; Figure 6B) was “at least 30 times”.

In the case of `Clc1nc(-c2ccccn2)nc2ccccc12` [7a, 4-Chloro-2-(pyridin-2-yl)quinazoline], the “inhibitory activity against HsMetAP1 in the presence of Mn(II) / absence of Co(II)” value ([4]; 10 μM Mn(II)) is reported as “completely lost the inhibitory activity”.

For `CCCCCCCCCCCCCC(=O)O[C@H]1CC[C@H](NC(=O)[C@H](OC)[C@H](O)[C@@H](O)[C@H](O)/C=C/C(C)C)C(=O)NC1` [bengamide A], the “signal of unprocessed 14-3-3γ” value [2] was “none of the MetAP inhibitors could generate a detectable signal”, the “increase in ratio of unprocessed 14-3-3γ versus total 14-3-3γ” value ([2]; HUVEC, 24-hour treatment, 100 nM, Figure 2A) was 8 fold and the “concentration of maximal response of accumulation of unprocessed 14-3-3γ” value ([2]; HUVEC, data not shown) was “around 10 nM”. The “increase in ratio of unprocessed versus total 14-3-3γ” value [9] was “no more than 2.6 fold”.

With `c1ccc(CCNc2nc(-c3ccccn3)nc3ccccc23)cc1` [10a, N-Phenethyl-2-(pyridin-2-yl)quinazolin-4-amine] the IC50 [4] was 24 µM and the “inhibitory activity against HsMetAP1 in the presence of Mn(II) / absence of Co(II)” value ([4]; 10 μM Mn(II)) was “could completely inhibit HsMetAP1”.

For `O=C(O)COc1ccc(N2CCN(c3nc(-c4ccccn4)nc4ccccc34)CC2)cc1` [11e, 2-(4-{4-[2-(Pyridin-2-yl)quinazolin-4-yl]piperazin-1-yl}phenoxy)acetic acid], the EC50 ([4]; EC50 (μM) HsMetAP1 Mn(II), Table 3, 10 μM Mn(II), mean ± SD) was > 100 µM.

In the case of `c1ccc2[nH]c(-c3cscn3)nc2c1` [Thiabendazole, 4-(1H-1,3-benzodiazol-2-yl)-1,3-thiazole], the “inhibition of HsMetAP1 in the absence of Co(II)” value [10] is given as “failed to inhibit”, the “effect on the NME of 14-3-3γ” value ([2]; HUVEC, 3–250 μM, 24 hours) is given as “did not affect” and the “activity against the growth of Escherichia coli” value [11] is given as “inactive”. For the same compound, the “effect on the NME of 14-3-3γ” value [12] was “did not affect”.

With `c1ccc(-c2nc(N3CCOCC3)c3ccccc3n2)nc1` [compound 17] the “increase in potency against HsMetAP1 with Co(II) compared with 10a” value [4] was 19 fold.

In the case of `CO[C@@H]1[C@H](OC(=O)NC(=O)CCl)CC[C@]2(CO2)[C@H]1[C@@]1(C)O[C@@H]1CC=C(C)C` [TNP-470], the “signal of unprocessed 14-3-3γ” value [2] is reported as “none of the MetAP inhibitors could generate a detectable signal” and the “iMet retention of BTF3L4-3×Flag” value [3] is reported as “no appreciable increase”.

For `Cc1nc(-c2ccc(Cl)cn2)nc(NC[C@@H](NCCCCc2ccccc2)c2ccccc2)c1Cl` [compound 3], the “cytotoxicity” value ([2]; 10 μM, most cells floating after 24 hours) was “severe cytotoxicity” and the “solubility at highest doses tested” value [6] was “No solubility problems”.
